Values after ≈ are worked out from the molar mass of the structure shown.
How the values were obtained:
[1] = system: Neisseria gonorrhoeae strain H041; assay: Estradiol-treated mouse model of cervico-vaginal infection, strain H041; format: in vivo, mouse (BALB/c); conditions: 48 mg/kg, 5 QD, IP; P = 0.007
[2] = system: N. gonorrhoeae (ATCC 700825); assay: Intravaginal infection model, ovariectomized BALB/c mice, strain ATCC 700825; format: in vivo, mouse (BALB/c); conditions: 26 h, IP 48 mg/kg QD, relative to vehicle or baseline
[3] = system: N. gonorrhoeae clinical isolates; assay: MIC, agar dilution (CLSI); format: cell-based, Neisseria gonorrhoeae
[4] = system: VISA; assay: MIC, in vitro susceptibility testing (CLSI); format: cell-based, Staphylococcus aureus; conditions: Staphylococcus aureus, VISA
[5] = system: VRSA; assay: MIC, in vitro susceptibility testing (CLSI); format: cell-based, Staphylococcus aureus; conditions: Staphylococcus aureus, VRSA
[6] = system: S. aureus VRSA, VRS-2; assay: Neutropenic murine thigh infection model; format: in vivo, mouse (ICR); conditions: PO 50 mg/kg BID, 26 h after infection
[7] = system: E. coli; parameters: method as in PMID 28483959, PMID 31315953; conditions: cited from earlier work

CNC(C)C1CCC(N)C(OC2C(N)CC(N)C(OC3OCC(C)(O)C(NC)C3O)C2O)O1 (centres unmarked) [GEN, gentamicin]
average CFU per mL of vaginal swab suspension over time [1]: significantly different than the vehicle control group | reduction in the bacterial counts [2]: No significant reduction in the bacterial counts

CC1(C)S[C@@H]2[C@H](NC(=O)Cc3ccccc3)C(=O)N2[C@H]1C(=O)O [Pen, penicillin]
MIC50 ([3]; 96 clinical isolates): 1 µg/mL (≈ 2.99 µM) | MIC90 ([3]; 96 clinical isolates): 2 µg/mL (≈ 5.98 µM) | MIC range ([3]; 96 clinical isolates): <0.008 to 4 µg/mL | MIC ([3]; strain CDC1 (GCREF2012 016)): 1 µg/mL (≈ 2.99 µM) | MIC ([3]; strain CDC2 (GCREF2012 045)): 1 µg/mL (≈ 2.99 µM) | MIC ([3]; strain CDC3 (GCREF2013 013)): 1 µg/mL (≈ 2.99 µM) | MIC ([3]; strain CDC4 (GCREF2013 030)): 1 µg/mL (≈ 2.99 µM) | MIC ([3]; strain CDC5 (GCREF2012 001)): 1 µg/mL (≈ 2.99 µM) | MIC ([3]; strain CDC6 (GCREF2012 002)): 1 µg/mL (≈ 2.99 µM) | MIC ([3]; strain CDC8 (GCREF2012 004)): 0.25 µg/mL (≈ 0.748 µM) | MIC ([3]; strain CDC9 (GCREF2012 005)): 1 µg/mL (≈ 2.99 µM) | MIC ([3]; strain CDC10 (GCREF2012 006)): 1 µg/mL (≈ 2.99 µM) | MIC ([3]; strain CDC11 (GCREF2012 007)): 1 µg/mL (≈ 2.99 µM) | MIC ([3]; strain CDC12 (GCREF2012 008)): 1 µg/mL (≈ 2.99 µM) | MIC ([3]; strain CDC13 (GCREF2012 009)): 1 µg/mL (≈ 2.99 µM) | MIC ([3]; strain CDC14 (GCREF2012 010)): 1 µg/mL (≈ 2.99 µM) | MIC ([3]; strain CDC15 (GCREF2012 011)): 0.125 µg/mL (≈ 0.374 µM) | MIC ([3]; strain CDC16 (GCREF2012 012)): 2 µg/mL (≈ 5.98 µM) | MIC ([3]; strain CDC18 (GCREF2012 014)): 1 µg/mL (≈ 2.99 µM) | MIC ([3]; strain CDC19 (GCREF2012 015)): 0.25 µg/mL (≈ 0.748 µM) | MIC ([3]; strain CDC20 (GCREF2012 017)): 0.125 µg/mL (≈ 0.374 µM) | MIC ([3]; strain CDC21 (GCREF2012 018)): 1 µg/mL (≈ 2.99 µM) | MIC ([3]; strain CDC22 (GCREF2012 019)): 0.25 µg/mL (≈ 0.748 µM) | MIC ([3]; strain CDC23 (GCREF2012 020)): 1 µg/mL (≈ 2.99 µM) | MIC ([3]; strain CDC24 (GCREF2012 021)): 1 µg/mL (≈ 2.99 µM) | MIC ([3]; strain CDC25 (GCREF2012 022)): 2 µg/mL (≈ 5.98 µM) | MIC ([3]; strain CDC26 (GCREF2012 023)): 0.25 µg/mL (≈ 0.748 µM) | MIC ([3]; strain CDC27 (GCREF2012 024)): 1 µg/mL (≈ 2.99 µM) | MIC ([3]; strain CDC28 (GCREF2012 025)): 1 µg/mL (≈ 2.99 µM) | MIC ([3]; strain CDC29 (GCREF2012 026)): 1 µg/mL (≈ 2.99 µM) | MIC ([3]; strain CDC30 (GCREF2012 027)): 1 µg/mL (≈ 2.99 µM) | MIC ([3]; strain CDC31 (GCREF2012 028)): 2 µg/mL (≈ 5.98 µM) | MIC ([3]; strain CDC32 (GCREF2012 029)): 1 µg/mL (≈ 2.99 µM) | MIC ([3]; strain CDC33 (GCREF2012 030)): 1 µg/mL (≈ 2.99 µM) | MIC ([3]; strain CDC34 (GCREF2012 031)): 1 µg/mL (≈ 2.99 µM) | MIC ([3]; strain CDC35 (GCREF2012 032)): 2 µg/mL (≈ 5.98 µM) | MIC ([3]; strain CDC36 (GCREF2012 033)): 0.25 µg/mL (≈ 0.748 µM) | MIC ([3]; strain CDC37 (GCREF2012 034)): 1 µg/mL (≈ 2.99 µM) | MIC ([3]; strain CDC38 (GCREF2012 035)): 1 µg/mL (≈ 2.99 µM) | MIC ([3]; strain CDC39 (GCREF2012 036)): 2 µg/mL (≈ 5.98 µM) | MIC ([3]; strain CDC40 (GCREF2012 037)): 1 µg/mL (≈ 2.99 µM) | MIC ([3]; strain CDC41 (GCREF2012 038)): 2 µg/mL (≈ 5.98 µM) | MIC ([3]; strain CDC42 (GCREF2012 039)): 2 µg/mL (≈ 5.98 µM) | MIC ([3]; strain CDC43 (GCREF2012 040)): 2 µg/mL (≈ 5.98 µM) | MIC ([3]; strain CDC45 (GCREF2012 042)): 2 µg/mL (≈ 5.98 µM) | MIC ([3]; strain CDC46 (GCREF2012 043)): 1 µg/mL (≈ 2.99 µM) | MIC ([3]; strain CDC47 (GCREF2012 044)): 1 µg/mL (≈ 2.99 µM) | MIC ([3]; strain CDC48 (GCREF2012 046)): 1 µg/mL (≈ 2.99 µM) | MIC ([3]; strain CDC49 (GCREF2012 047)): 2 µg/mL (≈ 5.98 µM) | MIC ([3]; strain CDC50 (GCREF2012 048)): 2 µg/mL (≈ 5.98 µM) | MIC ([3]; strain CDC51 (GCREF2012 049)): 2 µg/mL (≈ 5.98 µM) | MIC ([3]; strain CDC52 (GCREF2012 050)): 2 µg/mL (≈ 5.98 µM) | MIC ([3]; strain CDC53 (GCREF2012 051)): 2 µg/mL (≈ 5.98 µM) | MIC ([3]; strain CDC54 (GCREF2012 052)): 2 µg/mL (≈ 5.98 µM) | MIC ([3]; strain CDC55 (GCREF2013 001)): 1 µg/mL (≈ 2.99 µM) | MIC ([3]; strain CDC56 (GCREF2013 002)): 1 µg/mL (≈ 2.99 µM) | MIC ([3]; strain CDC57 (GCREF2013 003)): 1 µg/mL (≈ 2.99 µM) | MIC ([3]; strain CDC58 (GCREF2013 004)): 2 µg/mL (≈ 5.98 µM) | MIC ([3]; strain CDC59 (GCREF2013 044)): 2 µg/mL (≈ 5.98 µM) | MIC ([3]; strain CDC60 (GCREF2013 005)): 4 µg/mL (≈ 12 µM) | MIC ([3]; strain CDC61 (GCREF2013 006)): 4 µg/mL (≈ 12 µM) | MIC ([3]; strain CDC62 (GCREF2013 007)): 0.25 µg/mL (≈ 0.748 µM) | MIC ([3]; strain CDC64 (GCREF2013 009)): 0.5 µg/mL (≈ 1.5 µM) | MIC ([3]; strain CDC65 (GCREF2013 010)): 0.5 µg/mL (≈ 1.5 µM) | MIC ([3]; strain CDC66 (GCREF2013 011)): 0.25 µg/mL (≈ 0.748 µM) | MIC ([3]; strain CDC67 (GCREF2013 014)): 0.5 µg/mL (≈ 1.5 µM) | MIC ([3]; strain CDC68 (GCREF2013 016)): 1 µg/mL (≈ 2.99 µM) | MIC ([3]; strain CDC69 (GCREF2013 017)): 1 µg/mL (≈ 2.99 µM) | MIC ([3]; strain CDC70 (GCREF2013 018)): 2 µg/mL (≈ 5.98 µM) | MIC ([3]; strain CDC71 (GCREF2013 019)): 0.25 µg/mL (≈ 0.748 µM) | MIC ([3]; strain CDC72 (GCREF2013 020)): 2 µg/mL (≈ 5.98 µM) | MIC ([3]; strain CDC73 (GCREF2013 021)): 0.5 µg/mL (≈ 1.5 µM) | MIC ([3]; strain CDC74 (GCREF2013 022)): 0.25 µg/mL (≈ 0.748 µM) | MIC ([3]; strain CDC75 (GCREF2013 023)): 0.5 µg/mL (≈ 1.5 µM) | MIC ([3]; strain CDC76 (GCREF2013 024)): 0.5 µg/mL (≈ 1.5 µM) | MIC ([3]; strain CDC77 (GCREF2013 025)): 0.125 µg/mL (≈ 0.374 µM) | MIC ([3]; strain CDC78 (GCREF2013 026)): 0.5 µg/mL (≈ 1.5 µM) | MIC ([3]; strain CDC79 (GCREF2013 027)): 1 µg/mL (≈ 2.99 µM) | MIC ([3]; strain CDC80 (GCREF2013 028)): 2 µg/mL (≈ 5.98 µM) | MIC ([3]; strain CDC81 (GCREF2013 029)): 2 µg/mL (≈ 5.98 µM) | MIC ([3]; strain CDC82 (GCREF2013 031)): 1 µg/mL (≈ 2.99 µM) | MIC ([3]; strain CDC83 (GCREF2013 032)): 0.25 µg/mL (≈ 0.748 µM) | MIC ([3]; strain CDC84 (GCREF2013 033)): 0.25 µg/mL (≈ 0.748 µM) | MIC ([3]; strain CDC87 (GCREF2013 036)): 2 µg/mL (≈ 5.98 µM) | MIC ([3]; strain CDC88 (GCREF2013 037)): 2 µg/mL (≈ 5.98 µM) | MIC ([3]; strain CDC89 (GCREF2013 038)): 1 µg/mL (≈ 2.99 µM) | MIC ([3]; strain CDC90 (GCREF2013 039)): 2 µg/mL (≈ 5.98 µM) | MIC ([3]; strain CDC91 (GCREF2013 040)): 2 µg/mL (≈ 5.98 µM) | MIC ([3]; strain CDC92 (GCREF2013 041)): 2 µg/mL (≈ 5.98 µM) | MIC ([3]; strain CDC93 (GCREF2013 042)): 1 µg/mL (≈ 2.99 µM) | MIC ([3]; strain CDC94 (GCREF2013 043)): 0.25 µg/mL (≈ 0.748 µM) | MIC ([3]; strain CDC95 (GCREF2013 045)): 2 µg/mL (≈ 5.98 µM) | MIC ([3]; strain CDC96 (GCREF2013 046)): 1 µg/mL (≈ 2.99 µM) | MIC ([3]; strain CDC97 (GCREF2013 047)): 1 µg/mL (≈ 2.99 µM) | MIC ([3]; strain CDC98 (GCREF2013 048)): 0.25 µg/mL (≈ 0.748 µM) | MIC ([3]; strain CDC99 (GCREF2013 012)): 0.25 µg/mL (≈ 0.748 µM) | MIC ([3]; strain CDC100 (GCREF2013 015)): 1 µg/mL (≈ 2.99 µM)

CO[C@H]1/C=C/O[C@@]2(C)Oc3c(C)c(O)c4c(O)c(c(/C=N/N5CCN(C)CC5)c(O)c4c3C2=O)NC(=O)/C(C)=C\C=C\[C@H](C)[C@H](O)[C@@H](C)[C@@H](O)[C@@H](C)[C@H](OC(C)=O)[C@@H]1C [Rif, rifampicin]
MIC ([4]; strain 2 11 43): < 0.078 µg/mL | MIC ([4]; strain 2 11 56): > 10 µg/mL | MIC ([4]; strain 2 11 57): < 0.078 µg/mL | MIC ([4]; strain 2 11 61): < 0.078 µg/mL | MIC ([4]; strain 2 11 71): > 10 µg/mL | MIC ([4]; strain 2 11 78): < 0.078 µg/mL | MIC ([4]; strain 2 11 86): > 10 µg/mL | MIC ([4]; strain 2 13 52): > 10 µg/mL | MIC ([5]; strain 2 25 23): < 0.078 µg/mL | MIC ([5]; strain 2 25 24): < 0.078 µg/mL | MIC ([5]; strain 2 25 25): < 0.078 µg/mL | MIC ([5]; strain 2 25 26): < 0.078 µg/mL | MIC ([5]; strain 2 25 27): < 0.078 µg/mL | MIC ([5]; strain 2 25 28): < 0.078 µg/mL | MIC ([5]; strain VRS2 (VRS-2)): > 10 µg/mL

CC(=O)NC[C@H]1CN(c2ccc(N3CCOCC3)c(F)c2)C(=O)O1 [linezolid]
bacterial count reduction in thigh [6]: 3.41 log10

C[C@@H]1CN2c3c(cc4c(N5C(=O)OC[C@@H]5C)noc4c3F)CC3(C(=O)NC(=O)NC3=O)[C@H]2[C@H](C)O1 [zoliflodacin]
MIC [7]: 4 µg/mL (≈ 8.21 µM)
